Reference: paper PMC6001238, “Iterative Chemical Engineering of Vancomycin Leads to Novel Vancomycin Analogs With a High in Vitro Therapeutic Index” (Frontiers in Microbiology, 2018)
≈ marks a conversion by molar mass, not a printed value.

How the values were obtained:
[1] = test system: E. faecalis VSE 1; test: MIC, broth microdilution, vancomycin-sensitive E. faecalis (VSE 1); format: cell-based, Enterococcus faecalis; settings: for MIC: Enterococcus faecalis VSE 1 (vancomycin-sensitive), read-out: MIC; for MIC-fold improvement vs. vancomycin: VSE 1, ratio of MIC of vancomycin and MIC of analogue
Summary of the method: (§1)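 MIC values come from broth microdilution run to CLSI susceptibility-testing standards. Ultrapure water and uninoculated broth served as controls. In one series, vancomycin at a final 10 μM was co-dosed with the analogue or comparator antibiotic.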

[2] = test system: E. faecalis VRE 6; test: MIC, broth microdilution, vancomycin-resistant E. faecalis VRE 6 (VanA); format: cell-based, Enterococcus faecalis; settings: for MIC: Enterococcus faecalis VRE 6 (vancomycin-resistant), read-out: MIC; for MIC-fold improvement vs. vancomycin: VRE 6, ratio of MIC of vancomycin and MIC of analogue
Summary of the method: as §1

[3] = test system: E. faecalis VRE 53; test: MIC, broth microdilution, vancomycin-resistant E. faecalis VRE 53 (VanA); format: cell-based, Enterococcus faecalis; settings: for MIC: Enterococcus faecalis VRE 53 (vancomycin-resistant), read-out: MIC; for MIC-fold improvement vs. vancomycin: VRE 53, ratio of MIC of vancomycin and MIC of analogue
Summary of the method: as §1

[4] = test system: E. faecalis VRE 29; test: MIC, broth microdilution, vancomycin-resistant E. faecalis VRE 29 (VanA); format: cell-based, Enterococcus faecalis; settings: for MIC: Enterococcus faecalis VRE 29 (vancomycin-resistant), read-out: MIC; for MIC-fold improvement vs. vancomycin: VRE 29, ratio of MIC of vancomycin and MIC of analogue
Summary of the method: as §1

[5] = test system: E. faecalis VRE 37; test: MIC, broth microdilution, vancomycin-resistant E. faecalis VRE 37 (VanA); format: cell-based, Enterococcus faecalis; settings: for MIC: Enterococcus faecalis VRE 37 (vancomycin-resistant), read-out: MIC; for MIC-fold improvement vs. vancomycin: VRE 37, ratio of MIC of vancomycin and MIC of analogue
Summary of the method: as §1

[6] = test system: Murine leukemia (L1210) cells; test: Cytostatic activity, L1210 cell proliferation; format: cell-based; settings: mean ± SD of three experiments; highest concentration tested 250 µM; 2 days; read-out: Toxicity (IC50) L1210
Summary of the method: (§2)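 Test compounds, serially diluted, received an equal volume of cell suspension at 300,000–500,000 cells/mL. After 37°C incubation (2 days for L1210, 3 for CEM, 4 for HeLa), cells were enumerated by Coulter counting and 50%-inhibitory concentrations calculated per cell type.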

[7] = test system: human T-lymphocyte (CEM) cells; test: Cytostatic activity, CEM cell proliferation; format: cell-based; settings: mean ± SD of three experiments; highest concentration tested 250 µM; 3 days; read-out: Toxicity (IC50) CEM
Summary of the method: as §2

[8] = test system: human cervix carcinoma (HeLa) cells; test: Cytostatic activity, HeLa cell proliferation; format: cell-based; settings: mean ± SD of three experiments; highest concentration tested 250 µM; 4 days; read-out: Toxicity (IC50) HeLa
Summary of the method: as §2

[9] = test system: L1210, CEM and HeLa cell lines; test: Cytostatic activity, average or summary over L1210, CEM and HeLa; format: cell-based; settings: average of L1210, CEM and HeLa; read-out: Toxicity (IC50) Average
Summary of the method: as §2

[10] = test system: S. aureus VSSA (ATCC 6538); test: MIC, broth microdilution, vancomycin-sensitive S. aureus (VSSA/MSSA, ATCC 6538); format: cell-based, Staphylococcus aureus; settings: for MIC: Staphylococcus aureus VSSA, read-out: MIC; for MIC-fold improvement vs. vancomycin: VSSA, ratio of MIC of vancomycin and MIC of analogue
Summary of the method: as §1

[11] = test system: S. aureus VISA/HIP5827; test: MIC, broth microdilution, vancomycin-intermediate S. aureus VISA HIP5827; format: cell-based, Staphylococcus aureus; settings: for MIC: Staphylococcus aureus VISA/HIP5827, read-out: MIC; for MIC-fold improvement vs. vancomycin: VISA/HIP5827, ratio of MIC of vancomycin and MIC of analogue
Summary of the method: as §1

[12] = test system: S. aureus VRSA; test: MIC, broth microdilution, vancomycin-resistant S. aureus (VRSA); format: cell-based, Staphylococcus aureus; settings: for MIC: Staphylococcus aureus VRSA, read-out: MIC; for MIC-fold improvement vs. vancomycin: VRSA, ratio of MIC of vancomycin and MIC of analogue
Summary of the method: as §1

[13] = test system: MRSA KS2; test: MIC, broth microdilution, MRSA KS2; format: cell-based, Staphylococcus aureus; settings: for MIC-fold improvement vs. vancomycin: MRSA KS2, ratio of MIC of vancomycin and MIC of analogue; for MIC: Staphylococcus aureus MRSA KS2, read-out: MIC
Summary of the method: as §1

[14] = test system: MRSA KS6; test: MIC, broth microdilution, MRSA KS6; format: cell-based, Staphylococcus aureus; settings: for MIC-fold improvement vs. vancomycin: MRSA KS6, ratio of MIC of vancomycin and MIC of analogue; for MIC: Staphylococcus aureus MRSA KS6, read-out: MIC
Summary of the method: as §1

[15] = test system: MRSA KS89; test: MIC, broth microdilution, MRSA KS89; format: cell-based, Staphylococcus aureus; settings: for MIC-fold improvement vs. vancomycin: MRSA KS8, ratio of MIC of vancomycin and MIC of analogue; for MIC: Staphylococcus aureus MRSA KS8, read-out: MIC
Summary of the method: as §1

[16] = test system: MRSA KS1; test: MIC, broth microdilution, MRSA KS1; format: cell-based, Staphylococcus aureus; settings: for MIC-fold improvement vs. vancomycin: MRSA KS1, ratio of MIC of vancomycin and MIC of analogue; for MIC: Staphylococcus aureus MRSA KS1, read-out: MIC
Summary of the method: as §1

Row | Compound | MIC [1] [µM] | MIC-fold improvement vs. vancomycin [1] | MIC [2] [µM] | MIC-fold improvement vs. vancomycin [2] | MIC [3] [µM] | MIC-fold improvement vs. vancomycin [3] | MIC [4] [µM] | MIC-fold improvement vs. vancomycin [4] | MIC [5] [µM] | MIC-fold improvement vs. vancomycin [5] | IC50 [6] [µM] | IC50 [7] [µM] | IC50 [8] [µM] | IC50 [9] [µM] | MIC [10] [µM] | MIC-fold improvement vs. vancomycin [10] | MIC [11] [µM] | MIC-fold improvement vs. vancomycin [11] | MIC [12] [µM] | MIC-fold improvement vs. vancomycin [12] | further results
1 | CNC(CC(C)C)C(=O)NC1C(=O)NC(CC(N)=O)C(=O)NC2C(=O)NC3C(=O)NC(C(=O)NC(C(=O)NCCCNC(=O)c4ccc5cc(O)ccc5c4)c4cc(O)cc(O)c4-c4cc3ccc4O)C(O)c3ccc(c(Cl)c3)Oc3cc2cc(c3OC2OC(CO)C(O)C(O)C2OC2CC(C)(N)C(O)C(C)O2)Oc2ccc(cc2Cl)C1O (stereo not drawn) [Vanc-30] | 0.39 (≈ 0.653 µg/mL) | 4 | 3.13 (≈ 5.24 µg/mL) | 64 | 25 (≈ 41.9 µg/mL) | 16 | 12.5 (≈ 20.9 µg/mL) | 32 | 25 (≈ 41.9 µg/mL) | 16 | > 250 | > 250 | 45 ± 25 | 182 | 0.39 (≈ 0.653 µg/mL) | 2 | 0.39 (≈ 0.653 µg/mL) | 16 | 3.13 (≈ 5.24 µg/mL) | 32 | MIC-fold improvement vs. vancomycin [13]: 2; MIC [13]: 0.39 µM (≈ 0.653 µg/mL); MIC-fold improvement vs. vancomycin [14]: 2; MIC [14]: 0.39 µM (≈ 0.653 µg/mL); MIC-fold improvement vs. vancomycin [15]: 2; MIC [15]: 0.39 µM (≈ 0.653 µg/mL); MIC-fold improvement vs. vancomycin [16]: 2; MIC [16]: 0.39 µM (≈ 0.653 µg/mL)
2 | CCCCCCCc1ccc(C(=O)NCCCNC(=O)C2NC(=O)C3NC(=O)C(NC(=O)C4NC(=O)C(CC(N)=O)NC(=O)C(NC(=O)C(CC(C)C)NC)C(O)c5ccc(c(Cl)c5)Oc5cc4cc(c5OC4OC(CO)C(O)C(O)C4OC4CC(C)(N)C(O)C(C)O4)Oc4ccc(cc4Cl)C3O)c3ccc(O)c(c3)-c3c(O)cc(O)cc32)cc1 (stereo not drawn) [Vanc-31] | 0.39 (≈ 0.666 µg/mL) | 4 | 0.39 (≈ 0.666 µg/mL) | 513 | 3.13 (≈ 5.35 µg/mL) | 128 | 1.56 (≈ 2.66 µg/mL) | 256 | 1.56 (≈ 2.66 µg/mL) | 256 | 8.8 ± 0.6 | 17 ± 5 | 86 ± 14 | 37 | 0.20 (≈ 0.342 µg/mL) | 4 | 0.05 (≈ 0.0854 µg/mL) | 128 | 0.78 (≈ 1.33 µg/mL) | 128 | MIC-fold improvement vs. vancomycin [13]: 4; MIC [13]: 0.20 µM (≈ 0.342 µg/mL); MIC-fold improvement vs. vancomycin [14]: 4; MIC [14]: 0.20 µM (≈ 0.342 µg/mL); MIC-fold improvement vs. vancomycin [15]: 4; MIC [15]: 0.20 µM (≈ 0.342 µg/mL); MIC-fold improvement vs. vancomycin [16]: 1; MIC [16]: 0.78 µM (≈ 1.33 µg/mL)
3 | CNC(CC(C)C)C(=O)NC1C(=O)NC(CC(N)=O)C(=O)NC2C(=O)NC3C(=O)NC(C(=O)NC(C(=O)NCCCNC(=O)c4ccc(C(F)(F)F)cc4)c4cc(O)cc(O)c4-c4cc3ccc4O)C(O)c3ccc(c(Cl)c3)Oc3cc2cc(c3OC2OC(CO)C(O)C(O)C2OC2CC(C)(N)C(O)C(C)O2)Oc2ccc(cc2Cl)C1O (stereo not drawn) [Vanc-32] | 0.39 (≈ 0.654 µg/mL) | 4 | 3.13 (≈ 5.25 µg/mL) | 64 | 50 (≈ 83.9 µg/mL) | 8 | 12.5 (≈ 21 µg/mL) | 32 | 25 (≈ 41.9 µg/mL) | 16 | 164 ± 46 | 200 ± 12 | 106 ± 2 | 157 | 0.78 (≈ 1.31 µg/mL) | 1 | 0.78 (≈ 1.31 µg/mL) | 8 | 6.25 (≈ 10.5 µg/mL) | 16 | MIC-fold improvement vs. vancomycin [13]: 2; MIC [13]: 0.39 µM (≈ 0.654 µg/mL); MIC-fold improvement vs. vancomycin [14]: 2; MIC [14]: 0.39 µM (≈ 0.654 µg/mL); MIC-fold improvement vs. vancomycin [15]: 2; MIC [15]: 0.39 µM (≈ 0.654 µg/mL); MIC-fold improvement vs. vancomycin [16]: 2; MIC [16]: 0.39 µM (≈ 0.654 µg/mL)
